Measurements: US20210085798A1, “IMMUNITY LINKER MOLECULES AND THEIR USE IN THE TREATMENT OF INFECTIOUS DISEASES” (CENTAURI THERAPEUTICS LIMITED, priority 2018, published 2021)

Experiments:
[1] = tested on: E. coli K12 (NCTC 10538); assay type: cell-based; conditions: 40 μM Polymyxin B, anti-Gal IgM M86 25 μg/mL, MFI (FITC) over vehicle control
Procedure: The assays were carried out in polystyrene 96-well U bottom plates (Costar). […] The samples were incubated for 1 hour at room temperature shaking at 450 rpm. […] Data from all samples were analysed using Kaluza software (Beckman Coulter).

[2] = tested on: P. aeruginosa (ATCC 27853); assay: Flow cytometric antibody recruitment assay using anti-Gal IgM antibody M86, P. aeruginosa; assay type: cell-based; conditions: anti-Gal IgM M86 40 μg/mL, MFI (FITC) over vehicle control
Procedure: Flow Cytometric Antibody Recruitment Assay Using an Anti-Galα1-3Galβ1-4GlcNAc (Anti-Gal) Antibody
A secondary fluorescently labelled anti-IgM antibody was used to detect the anti-Gal antibody binding.
The assays were carried out in polystyrene 96-well U bottom plates (Costar). Frozen stocks of P. aeruginosa (American Type Culture Collection, ATCC 27853) in mid-exponential phase were thawed, centrifuged and resuspended in LB broth, Miller (Fisher BP1426-500) at OD595=0.2. The bacteria were grown to mid-exponential phase (OD595=0.4), washed once with Hank's Balanced Salt Solution with calcium and magnesium (HBSS+/+) and then resuspended in HBSS+/+ at a bacterial OD595=0.6. […] After three final washes with 200 μL HBSS+/+, the bacteria were resuspended in 200 μL HBSS+/+ and evaluated for anti-Gal antibody binding on a Cytoflex flow cytometer (Beckman Coulter). 50,000 counts of bacterial particles were sampled and the median fluorescent shift was recorded in the FITC-A channel. Data from all samples were analysed using Kaluza software (Beckman Coulter). […] The fold shift over background was calculated by dividing the Median Fluorescent Intensity (MFI) obtained in the presence of 20 μM of the Example compounds by the MFI value obtained in the vehicle controls, i.e., the absence of Examples. […] The shift in fluorescence intensity (FITC) occurs due to the binding event at each end of the molecule.

Polymyxin B
IgM Recruitment (Average fold change) [1]: 4 fold change | IgM Recruitment (20 μM, Average fold change) [2]: 1 fold change
